Measured values taken from patent US7691624B2, “Cancer cell detecting devices” (Academia Sinica, priority 2003, dated 2010).

What was measured:
CL1-0 cancer cells [1] = experiment: Stained cells spread onto cover slip, fluorescent cells counted; assay type: cell-based; conditions: 0.02 μM AO, 5 minutes, cover slip, LED
Protocol: Further, the role of the ratio of the cells stained by Compound 2/AO in cancer diagnosis was studied. Specifically, CL1-0 cancer cells, NIH3T3 normal cells, and their 1:10 mixture were respectively stained with 0.02 μM AO and 1.5 μM Compound 2 for 5 minutes in eppendorfs. Each sample was then taken from the eppendorf and spread onto a cover slip. Fluorescence emissions were recorded by a color camera upon an LED illumination. […] A statistical histogram of the ratio of the cell stained with Compound 2/AO to the ratio of the CL1-0 cells to the sum of NIH3T3 and CL1-0 cells was plotted. Each spot on the histogram represented an average of 5-10 measurements from a single sample.

CL1-0 cancer cells [2] = experiment: Fluorescence of stained cells in eppendorf under LED, recorded by camera; assay type: cell-based, human; conditions: for Numbers of cells required to distinguish cancer cells and normal cells: Cancer cells (C) CL1-0
Protocol: (§1) Human lung CL1-0 cancer cells or MRC-5 normal cells were incubated with 0.5 μM of Compound 2 and acridine orange (AO). After incubation in standard culture medium for 1 hour, the non-fixed cells were removed by washing the culture three times with phosphate buffered saline (PBS). The fixed cells were collected in an eppendorf by trypsinization. The eppendorf was centrifuged and then illuminated by an light emitting diode (LED) emitting excitation light with a center wavelength at 470 nm. A conventional digital camera was used to record the fluorescence. Table 1 summarizes the numbers of cells required to distinguish cancer cells from normal cells based on fluorescence emission of Compound 2 and AO recorded by a camera under different experimental conditions. Specifically, Compound 2 and AO were incubated with four different cells in eppendorf, i.e., MRC-5 normal cells, primary fibroblast, CL1-0 cancer cells, and HeLa cancer cells.

MRC-5 normal cells = experiment: as above; assay type: cell-based, human; conditions: for Numbers of cells required to distinguish cancer cells and normal cells: Normal cells (M) MRC-5
Protocol: as §1

HeLa cancer cells = experiment: as above; assay type: cell-based; conditions: Cancer cells (H) HeLa
Protocol: as §1

primary fibroblast = experiment: as above; assay type: cell-based; conditions: Normal cells (F) primary fibroblast
Protocol: as §1

DNA = experiment: Fluorescence analysis in the presence of a DNA; assay type: binding; conditions: λex≈430 nm; compound 2 with eleven DNAs, compound 4 with Hum24
Protocol: (§2) Compound 2 was mixed with eleven DNAs and subjected to fluorescence analysis at λex≈430 nm, using a Hitachi F4010 spectrofluorimeter with a 2 nm bandwidth in a 1-cm cell. Fluorescence analysis was also carried out for compound 4 in the presence of Hum24. […] Further, the fluorescence peaks for a complex of compound 2 and a DNA duplex and a complex of compound 2 and a DNA quadruplex were at ˜550 nm and ˜575 nm, respectively.

Hum24 quadruplex = experiment: Temperature-dependent CD analysis; assay type: binding, human
Source text: Eight DNA quadruplexes and their complexes with compound 2 were subjected to CD analysis. CD spectra were averaged 10 scans on a Jasco J-715 spectropolarimeter with a 2 nm bandwidth. The scan speed was 50 nm/min and the step resolution was 0.2 nm.
Further, Hum24 and its complexes with compounds 2, 4, 6, and 8 were subjected to temperature-dependent CD analysis.

[3] = Fluorescence analysis in aqueous solution; assay type: physicochemical; conditions: λex≈430 nm, no DNA
Protocol: as §2

CN(C)c1ccc2cc3ccc(N(C)C)cc3nc2c1 [AO, acridine orange, reference compound]
number of stained cells showing fluorescence (CL1-0 cancer cells [1]): 150
fluorescence emission in eppendorf (CL1-0 cancer cells [2]; 0.5 μM, 1 hour, LED 470 nm): fluorescence emission was detected
Numbers of cells required to distinguish cancer cells and normal cells (CL1-0 cancer cells [2]; 0.1 μM/30 min): 2,000 (C)
Numbers of cells required to distinguish cancer cells and normal cells (CL1-0 cancer cells [2]; 0.5 μM/1 hr): 1,000 (C)
fluorescence emission in eppendorf (MRC-5 normal cells; 0.5 μM, 1 hour, LED 470 nm): fluorescence emission was detected
Numbers of cells required to distinguish cancer cells and normal cells (MRC-5 normal cells; 0.1 μM/30 min): 3,000 (M)
Numbers of cells required to distinguish cancer cells and normal cells (MRC-5 normal cells; 0.5 μM/1 hr): 2,000 (M)
Numbers of cells required to distinguish cancer cells and normal cells (HeLa cancer cells; 0.05 μM/1 hr): 3,000 (H)
Numbers of cells required to distinguish cancer cells and normal cells (HeLa cancer cells; 0.1 μM/1 hr): 2,000 (H)
Numbers of cells required to distinguish cancer cells and normal cells (primary fibroblast; 0.05 μM/1 hr): 4,000 (F)
Numbers of cells required to distinguish cancer cells and normal cells (primary fibroblast; 0.1 μM/1 hr): 2,000 (F)

C[n+]1ccccc1C=Cc1ccc2[nH]c3ccc(C=Cc4cccc[n+]4C)cc3c2c1.[I-].[I-] [Compound 4, 3,6-bis-(2-(1-methylpyridinium-2-yl)-vinyl)-9H-carbazole diiodide]
increase of fluorescence intensity in the presence of a DNA (DNA): two orders of magnitude
melting temperature of Hum24 quadruplex in the presence of compound (Hum24 quadruplex): increased
fluorescence in an aqueous solution [3]: weak

C[n+]1ccnc(C=Cc2ccc3[nH]c4ccc(C=Cc5c[n+](C)ccn5)cc4c3c2)c1.[I-].[I-] [Compound 6, 3,6-bis-(2-(4-methylpyrazin-4-ium-2-yl)-vinyl)-9H-carbazole diiodide]
melting temperature of Hum24 quadruplex in the presence of compound (Hum24 quadruplex): increased

C[n+]1ccc(C=Nc2ccc3[nH]c4ccc(N=Cc5cc[n+](C)cc5)cc4c3c2)cc1.[I-].[I-] [Compound 8, N,N′-bis-((1-methylpyridinium-4-yl)methylidene)-9H-carbazole-3,6-diamine diiodide]
melting temperature of Hum24 quadruplex in the presence of compound (Hum24 quadruplex): increased
